Entries after “also recorded” stand apart in the source; their conditions may differ.
Assays:
[1] = tested on: NK92 cells; test: Flow cytometry-based cytotoxicity / bystander killing assay; format: cell-based, human
Description: (§1) Because directed degranulation with converged granules promoted killing efficiency, ciliobrevin D was used to physically prevent convergence in a cell that had received a convergence signal. It was considered that this would allow us to abrogate the killing efficiency benefit imparted by lytic granule convergence. In order to measure killing of both the target and bystander cells in a single experiment, flow cytometry-based cytotoxicity assays were performed, wherein each cell line was labeled with a unique fluorescent dye in the presence of media containing SYTOX Blue viability indicator dye. […] The viability of YTS ([…]), NK92 (FIG. 14E, 14H) and eNK (FIG. 14F, 14I) was not affected by DMSO or ciliobrevin D treatments. […] To ask if it promoted more collateral damage by NK cells 51Cr-labeled Raji cells were added (to serve as innocent bystanders) along with unlabeled 721.221 or K562 target cells. […] YTS or NK92 cells co-cultured with 51Cr-labeled Raji cells in the absence of 721.221 or K562 were unable to kill Raji cells (FIG. 14J). […] Convergence therefore serves to protect innocent bystander cells in complex cellular environments.
(§2) YTS-CD16, NK92-CD16 and eNK cells were labeled with CellTrace CFSE for 10 min at room temperature, washed, and treated with ciliobrevin D or DMSO control as described below in inhibitors. 721.221 and K562 cells were labeled with cell proliferation dye eFluor 670 for 5 min at room temperature. Raji cells were labeled with PKH-26 according to manufacture's protocol. NK cells were then mixed with the corresponding targets and Raji cells at a final volume of 200 μl complete R10 and incubated at 37° C. for 2 hr. Cells were then labeled with SYTOX Blue viability dye for 5 min at room temperature, washed, and run on LSRFortessa flow cytometer (BD).
(§3) Where applicable, YTS, NK92 and eNK cells were pretreated with […] ciliobrevin D (Millipore) for 30 min then washed. DMSO was used as the vehicle control for all inhibitor experiments. The inhibitor was also added into the co-culture with target cells.

[2] = tested on: YTS cells; test: as above; format: cell-based, human
Description: as §1, §2, §3

[3] = tested on: eNK cells; test: as above; format: cell-based, human
Description: as §1, §2, §3

[4] = tested on: CD19 CAR T cells; test: Standard 4-hour 51Cr cytotoxicity assay, bystander killing; format: cell-based; conditions: for increase of bystander killing compared to DMSO control: 10:1 effector to target ratio, BV173 bystanders, Daoy-CD19 inciting targets, representative donor
Description: FIG. 21. Bystander killing with increasing amounts of ciliobrevin D in the presence of CD19 CAR-bearing T cells. Standard 4-hour ^51Cr cytotoxicity assay of CD19 CAR T cells treated with ciliobrevin D (25, 50 and 100 μM) or DMSO control. CD19-expressing Daoy cells (Daoy-CD19, a medulloblastoma cell line engineered to express CD19) were used as inciting target cells to trigger the activation of CD19 CAR-bearing T cells. BV173 cells, a human acute lymphoblastic leukemia cell line, were used as non-susceptible bystander cells to measure the degree of collateral damage caused by non-directional degranulation.
(§4) Similarly, compared to DMSO, ciliobrevin D-treated CD19 CAR NK cells lyse approximately 24%, 39% and 40% more bystander cells at the concentration of 12.5, 25 and 50 μM, respectively (FIG. 22). […] FIG. 23 and FIG. 24 are time-lapse images of videos of control ([…]) and ciliobrevin D-treated ([…]) CD19 CAR T cells. […] In the control group, however, lytic granules converge immediately upon interacting with the target cell and remain tightly clustered until target is killed by the CD19 CAR T cell as indicated by uptake of the SYTOX Blue viability dye.

[5] = tested on: GD2 CAR-bearing T cells; test: Flow cytometry-based cytotoxicity assay, 48 h, bystander killing; format: cell-based; conditions: ciliobrevin D 90 μM, vs DMSO
Description: FIG. 23. Bystander killing with ciliobrevin D in the presence of GD2 CAR-bearing T cells. Flow cytometry-based cytotoxicity assay of GD2 CAR-bearing T cells treated with ciliobrevin D (90 μM) or DMSO control. BV173 cells were used as non-susceptible bystander cells to measure the degree of non-specific killing (Left). Daoy-CD19 cells were used as activating target cells (Right). After 48 h incubation, percent cell lysis and total cell number were measured using SYTOX Blue viability dye and flow cytometer cell counting beads, respectively. […] The non-specific lysis of BV173 cells increased after ciliobrevin D treatment while specific lysis of Daoy-CD19 cells was not affected.
as §4

[6] = tested on: CD19 CAR T cell; test: Live cell confocal microscopy of CD19 CAR T cell conjugated with a Daoy-CD19 target cell; format: cell-based
Description: FIG. 25. […] Live cell confocal microscopy of a ciliobrevin D-treated CD19 CAR T cell conjugated with a Daoy-CD19 target cell. Cell mixtures were imaged every 90 sec for 60 min. Time point 1 (T1) represents the time when imaging started. Target cell death occurred rapidly at T5 (7.5 min) as indicated by uptake of SYTOX Blue viability dye and loss of adherence. […] Red, LysoTracker Red (lytic granules); blue, SYTOX Blue viability dye; green, CD19 CAR.
as §4

SMILES: N#CC(C(=O)c1ccc(Cl)cc1Cl)=C1NC(=O)c2ccc(Cl)cc2N1 [ciliobrevin D, 2-(7-chloro-4-oxo-3,4-dihydroquinazolin-2(1H)-ylidene)-3-(2,4-dichlorophenyl)-3-oxopropanenitrile]
- viability of NK cells ([1]; NK92, standard cytotoxicity and bystander killing assays): not affected; also recorded: not different
- specific lysis of susceptible target cells ([1]; NK92 against K562, Raji bystander cells added, vs DMSO): no change in killing; also recorded: not affected
- killing of susceptible target cells ([1]; NK92 against K562, absence of Raji bystander cells, vs DMSO): did not affect killing; also recorded: not affected
- non-specific lysis (bystander killing) of Raji cells ([1]; NK92 with K562 inciting targets, vs DMSO): killing of the bystander Raji cells in a dose-dependent manner; also recorded: increased
- specific lysis of susceptible target cells ([2]; YTS against 721.221, Raji bystander cells added, vs DMSO): no change in killing; also recorded: not affected
- killing of susceptible target cells ([2]; YTS against 721.221, absence of Raji bystander cells, vs DMSO): did not affect killing; also recorded: not affected
- non-specific lysis (bystander killing) of Raji cells ([2]; YTS with 721.221 inciting targets, vs DMSO): killing of the bystander Raji cells in a dose-dependent manner; also recorded: increased
- viability of NK cells ([2]; YTS, standard cytotoxicity and bystander killing assays): not affected; also recorded: not different
- specific lysis of susceptible target cells ([3]; eNK against K562, Raji bystander cells added, vs DMSO): no change in killing; also recorded: not affected
- killing of susceptible target cells ([3]; eNK against K562, absence of Raji bystander cells, vs DMSO): did not affect killing; also recorded: not affected
- non-specific lysis (bystander killing) of Raji cells ([3]; eNK with K562 inciting targets, vs DMSO): killing of the bystander Raji cells in a dose-dependent manner; also recorded: increased
- viability of NK cells ([3]; eNK, standard cytotoxicity and bystander killing assays): not affected; also recorded: not different
- increase of bystander killing compared to DMSO control ([4]; 25 μM): approximately 48%
- increase of bystander killing compared to DMSO control ([4]; 50 μM): ~71%
- increase of bystander killing compared to DMSO control ([4]; 100 μM): ~90%
- non-specific lysis of BV173 cells ([4]; 25, 50 and 100 μM, each effector to target ratio, vs DMSO): dose-dependent increases
- specific lysis of Daoy-CD19 target cells ([5]; 48 h incubation): remains similar to the DMSO control; also recorded: not affected
- decrease of total number of BV173 (bystander) cells ([5]; after 48 h incubation): ~20%
- total number of Daoy-CD19 (target) cells ([5]; after 48 h incubation): does not change; also recorded: remained similar to the DMSO control
- time of target cell death (SYTOX Blue uptake, loss of adherence) ([6]; ciliobrevin D-treated CD19 CAR T cell, Daoy-CD19 target): 7.5 min
- lytic granule positioning during conjugation and killing ([6]; ciliobrevin D-treated, imaged every 90 sec for 60 min): dispersedly localized lytic granules throughout the video; also recorded: remained dispersed throughout the video
